Test results from the NIST ThermoML archive (doi:10.1016/j.jct.2016.08.026).

Experiment: xn = mol fraction of the nth substance listed
Conditions: 101 kPa, Liquid, Pycnometric method

C=CC(=O)OCCCC [butyl 2-propenoate] + CC#N
mass density [kg/m3]
Conditions | 293.15 K | 298.15 K | 303.15 K | 308.15 K | 313.15 K | 318.15 K
x2 = 0 | 898.85 | 894.1 | 889.35 | 884.6 | 879.85 | 875.1
x2 = 0.061 | 896.58 | 891.84 | 887.1 | 882.36 | 877.62 | 872.87
x2 = 0.1168 | 894.23 | 889.49 | 884.75 | 880.01 | 875.26 | 870.51
x2 = 0.1832 | 891.06 | 886.31 | 881.56 | 876.81 | 872.05 | 867.29
x2 = 0.2571 | 887.05 | 882.28 | 877.51 | 872.73 | 867.95 | 863.17
x2 = 0.3094 | 883.86 | 879.07 | 874.28 | 869.49 | 864.69 | 859.89
x2 = 0.3825 | 878.86 | 874.05 | 869.23 | 864.41 | 859.59 | 854.77
x2 = 0.4563 | 873.07 | 868.23 | 863.39 | 858.55 | 853.7 | 848.85
x2 = 0.5282 | 866.62 | 861.75 | 856.88 | 852.01 | 847.13 | 842.25
x2 = 0.5779 | 861.58 | 856.69 | 851.79 | 846.89 | 841.99 | 837.09
x2 = 0.6483 | 853.47 | 848.54 | 843.6 | 838.66 | 833.72 | 828.79
x2 = 0.7299 | 842.32 | 837.34 | 832.35 | 827.36 | 822.37 | 817.38
x2 = 0.8143 | 828.2 | 823.15 | 818.1 | 813.05 | 807.99 | 802.93
x2 = 0.9182 | 805.7 | 800.53 | 795.36 | 790.19 | 785.01 | 779.83

C=CC(=O)OCC [ethyl propenoate] + CC#N
mass density [kg/m3]
Conditions | 293.15 K | 298.15 K | 303.15 K | 308.15 K | 313.15 K | 318.15 K
x2 = 0 | 921.76 | 915.95 | 910.14 | 904.33 | 898.52 | 892.71
x2 = 0.0611 | 918.24 | 912.49 | 906.74 | 900.99 | 895.24 | 889.48
x2 = 0.1197 | 914.45 | 908.75 | 903.05 | 897.35 | 891.64 | 885.93
x2 = 0.1852 | 909.73 | 904.07 | 898.4 | 892.73 | 887.06 | 881.39
x2 = 0.2385 | 905.48 | 899.84 | 894.2 | 888.55 | 882.9 | 877.25
x2 = 0.2966 | 900.45 | 894.83 | 889.21 | 883.58 | 877.95 | 872.32
x2 = 0.3675 | 893.69 | 888.1 | 882.5 | 876.9 | 871.3 | 865.7
x2 = 0.436 | 886.46 | 880.89 | 875.32 | 869.75 | 864.18 | 858.61
x2 = 0.4982 | 879.23 | 873.69 | 868.15 | 862.61 | 857.07 | 851.53
x2 = 0.5745 | 869.38 | 863.88 | 858.38 | 852.88 | 847.38 | 841.87
x2 = 0.6519 | 858.1 | 852.64 | 847.18 | 841.72 | 836.26 | 830.8
x2 = 0.725 | 846 | 840.58 | 835.16 | 829.74 | 824.32 | 818.9
x2 = 0.8185 | 828.05 | 822.69 | 817.33 | 811.97 | 806.6 | 801.23
x2 = 0.9145 | 805.92 | 800.6 | 795.28 | 789.96 | 784.63 | 779.3

C=CC(=O)OC [methyl propenoate] + CC#N
mass density [kg/m3]
Conditions | 293.15 K | 298.15 K | 303.15 K | 308.15 K | 313.15 K | 318.15 K
x2 = 0 | 953.51 | 947.56 | 941.61 | 935.66 | 929.71 | 923.76
x2 = 0.0591 | 948.65 | 942.78 | 936.9 | 931.02 | 925.14 | 919.27
x2 = 0.1171 | 943.34 | 937.51 | 931.68 | 925.85 | 920.01 | 914.17
x2 = 0.17 | 938.02 | 932.22 | 926.42 | 920.62 | 914.81 | 909
x2 = 0.2356 | 930.83 | 925.06 | 919.29 | 913.52 | 907.75 | 901.97
x2 = 0.2977 | 923.4 | 917.66 | 911.92 | 906.18 | 900.43 | 894.68
x2 = 0.3615 | 915.12 | 909.41 | 903.7 | 897.99 | 892.28 | 886.56
x2 = 0.4343 | 904.86 | 899.19 | 893.52 | 887.85 | 882.17 | 876.49
x2 = 0.5014 | 894.57 | 888.94 | 883.31 | 877.67 | 872.03 | 866.39
x2 = 0.5738 | 882.48 | 876.9 | 871.32 | 865.73 | 860.14 | 854.55
x2 = 0.6537 | 867.83 | 862.31 | 856.79 | 851.26 | 845.73 | 840.2
x2 = 0.7623 | 845.33 | 839.89 | 834.45 | 829.01 | 823.57 | 818.13
x2 = 0.8155 | 833.04 | 827.65 | 822.26 | 816.87 | 811.47 | 806.07
x2 = 0.9074 | 809.47 | 804.14 | 798.81 | 793.47 | 788.13 | 782.79

C=CC(=O)OC(C)(C)C [tert-butyl acrylate] + CC#N
mass density [kg/m3]
Conditions | 293.15 K | 298.15 K | 303.15 K | 308.15 K | 313.15 K | 318.15 K
x2 = 0 | 884.13 | 879.66 | 875.2 | 870.74 | 866.28 | 861.82
x2 = 0.0772 | 881.52 | 877.05 | 872.58 | 868.11 | 863.64 | 859.17
x2 = 0.1496 | 878.71 | 874.23 | 869.74 | 865.25 | 860.76 | 856.27
x2 = 0.2216 | 875.53 | 871.02 | 866.51 | 861.99 | 857.47 | 852.95
x2 = 0.2983 | 871.66 | 867.11 | 862.56 | 858 | 853.44 | 848.88
x2 = 0.3643 | 867.87 | 863.28 | 858.69 | 854.1 | 849.51 | 844.91
x2 = 0.4345 | 863.31 | 858.68 | 854.05 | 849.42 | 844.78 | 840.14
x2 = 0.5074 | 857.88 | 853.2 | 848.52 | 843.84 | 839.16 | 834.47
x2 = 0.5769 | 851.91 | 847.18 | 842.45 | 837.72 | 832.98 | 828.24
x2 = 0.6465 | 844.97 | 840.18 | 835.39 | 830.6 | 825.8 | 821
x2 = 0.7141 | 837.1 | 832.24 | 827.38 | 822.52 | 817.66 | 812.8
x2 = 0.7821 | 827.76 | 822.83 | 817.9 | 812.96 | 808.02 | 803.08
x2 = 0.8603 | 814.71 | 809.68 | 804.64 | 799.6 | 794.56 | 789.51
x2 = 0.9345 | 799.24 | 794.08 | 788.92 | 783.75 | 778.58 | 773.41
